The results in this text go back to ChEMBL document CHEMBL1201862, “PubChem BioAssay data set” (2004).

Data set [1] addresses Cytochrome P450 2C9 (Homo sapiens, UniProt P11712).
Data set [2] is described as follows: inhibitors of intracellular T. cruzi replication, confirmation, NIH3T3 host cells, beta-gal luminescence (AID 2044).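 Also: intracellular parasites grown in NIH/3T3 mouse fibroblasts as host cells; luminescent beta-galactosidase reporter signal from transgenic T. cruzi replicating inside host cells; inhibitors lower the luminescence signal.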 The class given is functional, cell-based.
Data set [3] in a line: cytotoxicity in MIN6 insulinoma cells, dose response, cytotoxicity control, cell-based, mouse insulinoma (AID 2122).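 Also: confirmatory high-throughput counterscreen run to flag cytotoxic compounds; mouse MIN-6 beta cells carrying an insulin promoter eGFP reporter.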 The class given is functional.
A short description of data set [4]: insulin promoter down-regulators in MIN6 cells, imaging, high-content screening, mouse beta cells (AID 1628). It is filed as functional.
Data set [5] in a line: cytotoxicity toward NIH3T3 fibroblasts, dose response, counter-screen, cell-based, ATP luminescence, mouse fibroblasts (AID 2010).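 Also: cells exposed to compound for about 90 hours before reading.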 The class given is functional. (In general: Counterscreens check selectivity or assay interference.)
The target in data set [6] is Cytochrome P450 2C19 (Homo sapiens, UniProt P33261). Put plainly: Cytochrome panel assay with activity outcomes. Panel member name: p450-cyp2c19 Compounds with AC50 equal or less than 10 uM are considered active. It is filed as functional. The conditions noted are these: read-out: AC50.
Data set [7] addresses Cytochrome P450 3A4 (Homo sapiens, UniProt P08684).
In data set [8] the target is T1, Cytochrome P450 1A2 (Homo sapiens, UniProt P05177).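 Also: PubChem cytochrome P450 panel assay, CYP1A2 panel member.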
T1 sequence (P05177 whole entry): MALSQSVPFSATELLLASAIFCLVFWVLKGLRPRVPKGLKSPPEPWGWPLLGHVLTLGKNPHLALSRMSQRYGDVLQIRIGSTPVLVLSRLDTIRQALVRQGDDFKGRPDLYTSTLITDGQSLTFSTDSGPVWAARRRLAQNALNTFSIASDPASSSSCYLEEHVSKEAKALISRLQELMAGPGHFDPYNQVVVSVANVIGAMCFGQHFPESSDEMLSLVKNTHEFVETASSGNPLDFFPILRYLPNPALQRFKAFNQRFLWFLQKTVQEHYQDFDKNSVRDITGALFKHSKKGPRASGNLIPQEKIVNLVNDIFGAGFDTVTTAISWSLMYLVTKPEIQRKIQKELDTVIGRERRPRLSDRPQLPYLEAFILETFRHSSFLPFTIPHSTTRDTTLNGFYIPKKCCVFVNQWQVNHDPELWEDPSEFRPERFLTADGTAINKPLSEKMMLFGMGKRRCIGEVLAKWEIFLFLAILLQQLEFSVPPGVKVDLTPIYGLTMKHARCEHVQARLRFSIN

The source made the active and inactive calls.

Sequence of Cytochrome P450 2C9 (P11712 whole entry): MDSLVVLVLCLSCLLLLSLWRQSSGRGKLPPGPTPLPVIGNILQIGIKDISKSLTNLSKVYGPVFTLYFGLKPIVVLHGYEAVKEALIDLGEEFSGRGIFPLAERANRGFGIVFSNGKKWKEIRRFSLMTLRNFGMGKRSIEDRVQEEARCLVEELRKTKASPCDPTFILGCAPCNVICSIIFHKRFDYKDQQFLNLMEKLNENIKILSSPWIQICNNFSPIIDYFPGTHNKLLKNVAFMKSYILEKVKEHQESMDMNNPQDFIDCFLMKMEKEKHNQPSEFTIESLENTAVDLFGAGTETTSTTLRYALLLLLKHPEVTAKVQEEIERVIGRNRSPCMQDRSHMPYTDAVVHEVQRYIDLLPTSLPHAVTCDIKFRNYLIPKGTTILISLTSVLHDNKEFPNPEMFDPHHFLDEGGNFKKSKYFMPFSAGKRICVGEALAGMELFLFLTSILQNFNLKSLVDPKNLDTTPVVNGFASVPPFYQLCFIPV
Sequence of Cytochrome P450 3A4 (P08684 whole entry): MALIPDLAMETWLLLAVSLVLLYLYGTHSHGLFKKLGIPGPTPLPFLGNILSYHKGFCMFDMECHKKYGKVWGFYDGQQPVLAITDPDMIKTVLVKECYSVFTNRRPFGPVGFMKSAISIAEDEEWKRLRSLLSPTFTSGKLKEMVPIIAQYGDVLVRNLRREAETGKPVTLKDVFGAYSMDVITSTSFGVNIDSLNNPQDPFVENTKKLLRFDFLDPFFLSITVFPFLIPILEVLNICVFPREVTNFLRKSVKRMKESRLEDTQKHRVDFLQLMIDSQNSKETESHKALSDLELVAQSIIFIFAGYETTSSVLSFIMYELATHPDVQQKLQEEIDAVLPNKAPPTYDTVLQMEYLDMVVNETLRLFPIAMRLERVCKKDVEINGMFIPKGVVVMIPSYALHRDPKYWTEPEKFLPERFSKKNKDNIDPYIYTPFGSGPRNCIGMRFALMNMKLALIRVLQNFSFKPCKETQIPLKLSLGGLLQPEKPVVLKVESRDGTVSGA
Sequence of Cytochrome P450 2C19 (P33261 whole entry): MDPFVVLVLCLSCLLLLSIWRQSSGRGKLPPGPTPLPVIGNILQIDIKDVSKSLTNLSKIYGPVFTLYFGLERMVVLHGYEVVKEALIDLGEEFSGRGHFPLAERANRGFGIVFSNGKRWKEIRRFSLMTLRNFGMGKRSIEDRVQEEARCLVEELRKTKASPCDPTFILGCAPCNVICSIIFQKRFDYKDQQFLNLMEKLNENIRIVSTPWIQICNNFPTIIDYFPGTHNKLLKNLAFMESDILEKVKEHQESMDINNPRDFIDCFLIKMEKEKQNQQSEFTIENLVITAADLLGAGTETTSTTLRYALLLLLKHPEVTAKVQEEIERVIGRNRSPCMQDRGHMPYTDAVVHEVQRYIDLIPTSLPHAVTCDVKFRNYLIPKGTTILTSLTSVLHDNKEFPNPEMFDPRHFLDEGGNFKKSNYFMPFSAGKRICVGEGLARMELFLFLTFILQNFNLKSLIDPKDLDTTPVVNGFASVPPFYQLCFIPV

In the case of `O=C(Nc1cccc2ccccc12)c1cn(-c2ccccc2)nc1-c1cccs1`, the AC50 – broadly, the concentration at which the activity in the assay is half-maximal – in data set [1] was “inconclusive”.

With `Cc1cc(C)n(-c2nc(NCCC(C)C)c3c4c(sc3n2)COC(C)(C)C4)n1`, the values for the EC50 in data set [2] and in data set [5] were 1.64 µM (active) and > 60 µM (not active), respectively. For the same compound, the IC50 (as a rule, the point on the concentration scale where inhibition reaches its midpoint) in data set [3] was 2.26 µM (active); in data set [4], 3.09 µM (active).

Consider `Cc1cc(C)cc(-n2nnc(C(=O)NCc3ccccc3Cl)c2N)c1`, for which the AC50 in data set [6] was 3.16 µM (inconclusive); in data set [7], 15.8 µM (inconclusive); in data set [1], “inconclusive”; in data set [8] it was 1.58 µM (inconclusive).

With `O=C(c1cc(-c2ccco2)on1)N1CCOCC1`, the AC50 result in data set [1] is “inconclusive”; in data set [8] it was 0.0251 µM (inconclusive).

With `Cc1ccccc1Cn1c(=N)n(CC(=O)c2ccco2)c2ccccc21`, the IC50 in data set [3] is 7.02 µM (active); in data set [4], 3.99 µM (active).

With `CCn1c(C)nc2c1C(=O)c1ccccc1C2=O`, the AC50 is 20 µM (inconclusive) in data set [6], 20 µM (inconclusive) in data set [7] and “inconclusive” in data set [1].
